Blank lines part the entries; values can stand above or below the molecule they belong to.
What was measured:
[1] = Rate of conversion of QBP to 8HQ by H2O2 (pseudo first-order, spectrophotometric); assay type: physicochemical; conditions: 100 μM QBP, PBS pH 7.4, 1-10 mM H2O2
Experimental: FIG. 3. Plot of kobs at varying concentrations of H2O2 to obtain the rate constant k for the conversion of QBP to HQ. QBP was initially dissolved in a minimal amount of methanol and then diluted into PBS buffer, pH 7.4, to a final concentration of 100 μM. Spectra were taken immediately after addition of 1-10 mM H2O2; at least 40 spectra were collected before 50% conversion of prochelator to chelator. The change in absorbance at 273 nm was used to follow the reaction. The negative slope of the linear fit of ln(1−(A−Ao/Ao)) vs time gives the observed rate constant kobs. The slope of the line through data kobs vs [H2O2] provides k (M^−1 s^−1).
In order to determine the rate of conversion of QBP to 8HQ by H2O2 (Eq. 2), reactions were monitored spectrophotometrically under pseudo first-order conditions of excess H2O2. The observed rate constants (kobs) were plotted against peroxide concentration (FIG. 3) to give a rate constant k of 0.13 M^−1 s^−1. rate=k[QBP][H2O2] Eq. 2

Aβ [2] = assay: Turbidity (light scattering) assay of metal-induced Aβ aggregation; assay type: biochemical
Experimental: FIG. 4. […] Samples, which contain various combinations of 10 μM Aβ, 10 μM Cu(Gly)2, 10 μM ZnCl2, 10 or 20 μM 8HQ, 20 or 100 μM QBA, 20 or 100 μM QBP, as indicated on the graph, were incubated in a 96 well plate at 37° C. Total volume per well was made up to 200 μL with Hepes buffer. Abs readings were taken 64 min after mixing (diagonal hashed bars). After one hour incubation, 1 mM H2O2 was added to each well and Abs readings were taken after 30 min (horizontal striped bars). Error bars represent the variability of triplicate measurements.

[3] = Stability of QBP in aqueous solution (hydrolysis to QBA), monitored by UV-Vis and mass spectrometry; assay type: physicochemical
H2O2 production by Cu = assay: Hydrogen peroxide detection by the Amplex Red/HRP assay (Aβ, Cu(Gly)2, ascorbic acid); assay type: biochemical
Experimental: FIG. 6. Hydrogen peroxide detection by the Amplex Red/HRP assay for samples containing various combinations of 200 nm Aβ, 200 nm Cu(Gly)2, 10 μM ascorbic acid, 2-200 μM QBP, 50-400 nm 8HQ, in a total volume of 50 μL buffer (50 mM hepes, 150 mM NaCl). Samples were incubated at 37° C. for approximately 1 h before 50 μL of Amplex Red/HRP reagent was added. Fluorescence readings were taken with λex=485 and λem=590 nm.
(§1) The complex [Cu(8HQ)2] has a characteristic absorbance band at 375 nm, which is clearly visible in samples that contain Aβ, Cu^2+ and 8HQ. […] Mass spectral analysis of the sample gives m/z of 352, further confirming formation of [Cu(8HQ)2] in these complex mixtures. The previous experiment contained a relatively high concentration (1 mM) of H2O2 that was added in a single bolus. Several groups have shown that combinations of Aβ, Cu and reductants produce significant amounts of H2O2 from O2. Therefore, to investigate whether these conditions of more biologically relevant H2O2 production are sufficient for activating QPB, samples of Aβ, Cu^2+ (provided as Cu(Gly)2), ascorbic acid, and either 8HQ or QBP were monitored for H2O2 production with the Amplex Red assay. […] Samples that contain Cu and ascorbate (with or without Aβ) provide just over 300 nM detectable H2O2. […] When 8HQ is present at a 2:1 ratio to Cu, the amount of detectable H2O2 diminishes to one third that detected in the presence of Aβ. […] When QBP is added to the reaction mixture in place of 8HQ, a similar result is obtained.

[4] = UV-vis spectra of oxidation and Cu2+ binding by QBP; conditions: 100 μM QBP
Experimental: FIG. 2. Oxidation and Cu^2+ binding by QBP. 100 μM QBP and 50 μM Cu(Gly)2 were incubated in PBS buffer pH 7.4. After one hour, 4 mM H2O2 was added. After 60 min, oxidation and Cu binding were complete. Resulting spectrum is nearly identical to 8HQ-Cu spectra.
With the phenol of 8HQ masked by the pinanediol boronic ester, the QBP prochelator should have little to no affinity for metal ions.

Aβ [5] = assay: UV-vis analysis of H2O2-treated Aβ samples; assay type: biochemical; conditions: samples containing Aβ/Cu/QBP/H2O2
From the text: FIG. 5. UV-vis analysis of H2O2-treated Aβ samples. The samples are the same ones as in FIG. 4.
Further confirmation that Cu(8HQ)2 is, indeed, generated in the reaction of Aβ/Cu/QBP/H2O2 described in FIG. 4 comes from the UV-vis spectrum of the reaction mixture, shown in FIG. 5.
as §1

[6] = preliminary investigations
From the text: Quinoline boronic acid (QBA) is commercially available. […] In order to prevent premature metal binding, it was therefore necessary to form a boronic ester.

- hydrolysis to QBA in aqueous solution ([3]; between pH 5-8, over the course of 10 h): no signs of hydrolysis
- hydrolysis to QBA in aqueous solution ([3]; low and high pH values outside pH 5-8, mass spectrometry): some hydrolysis to QBA was detected
- time after H2O2 addition at which oxidation and Cu binding were complete ([4]; 50 μM Cu(Gly)2, PBS pH 7.4, 4 mM H2O2): 60 min
- spectrum after addition of H2O2 ([4]; 50 μM Cu(Gly)2, PBS pH 7.4, 4 mM H2O2 added): matches that of [Cu(8HQ)2]
SMILES: CC1(C)C2CC3OB(c4cccc5cccnc45)OC3(C)C1C2 (stereo not shown) [QBP]
- rate constant k for conversion of QBP to 8HQ by H2O2 [1]: 0.13 M⁻¹ s⁻¹
- turbidity of Aβ/Cu2+ samples after H2O2 addition (Aβ [2]; 1 mM H2O2 added after one hour incubation, read 30 min later): significant decrease in turbidity
- metal-induced Aβ aggregation (Aβ [2]; 20 or 100 μM QBP, no H2O2): does not interfere
- H2O2 detected relative to the concentration obtained in the absence of chelator (H2O2 production by Cu; 100 μM QBP with Cu, ascorbate and Aβ): a third
- H2O2 detected (H2O2 production by Cu; 100 μM QBP with Cu, ascorbate and Aβ, 1-h incubation): about 100 nM
- interaction with Cu2+ in prochelator form (UV-vis spectral change) ([4]; 50 μM Cu(Gly)2, PBS pH 7.4, one hour, no H2O2): does not interact with Cu^2+
- formation of [Cu(8HQ)2] (absorbance band at 375 nm) (Aβ [5]): [Cu(8HQ)2] has, indeed, been generated

SMILES: OBO.c1ccc2ncccc2c1 [QBA, Quinoline boronic acid]
- interaction with metal ions [6]: interacts directly with metal ions

SMILES: Oc1cccc2cccnc12 [8HQ, 8-hydroxyquinoline, reference compound]
- copper-induced Aβ aggregation (Aβ [2]; 2 equiv of 8HQ, 10 μM Aβ, 10 μM Cu(Gly)2, 37° C.): completely inhibits
- zinc-induced Aβ aggregation (Aβ [2]; 2 equiv of 8HQ, 10 μM Aβ, 10 μM ZnCl2, 37° C.): significantly reduces
- amount of detectable H2O2 relative to that detected in the presence of Aβ (H2O2 production by Cu; 8HQ at a 2:1 ratio to Cu): one third
- H2O2 production (H2O2 production by Cu; 8HQ at a quarter of an equiv of Cu, 200 nM Cu(Gly)2, 200 nM Aβ, 10 μM ascorbic acid, 1-h incubation, pH 7.4): inhibits H2O2 production

From US9175016B2, “Prochelators useful for inhibiting metal-associated toxicity” (Duke University, priority 2009, dated 2015)
